Assay results reported in patent US20100183600A1, “RAF Inhibitors and Their Uses” (ARQULE, INC., priority 2008, published 2010).
Entries after “also recorded” stand apart in the source; their conditions may differ.

Experiments:
human tumors (A375) = assay: Xenograft model in athymic mice; type: in vivo, mouse
Method: Compound 17 was injected intra-peritoneally (IP) at 160 mg/kg and compound 19 was injected IP at 300 mg/kg (equivalent dose if expressed in mmole/kg, taking into account salt components).
A mouse xenograft model was performed according to the method of Jacob et al, Gene Ther Mol Biol 2004; 8:213-219 and Wilhelm et al, Cancer Research 2004; 64: 7099-7109.
Animal Care. Six week old female NCr nu/nu mice were purchased from Taconic Farms, Germantown, N.Y. and allowed to acclimate 1-2 weeks. Mice were housed in sterile micro isolator cages, 5 mice per cage and receive food and water ad libitum. All experimental procedures and surgical manipulations were approved in accordance with ArQule's Institutional Animal Care and Use Committee (IACUC).
Tumor Cell Lines and Model. Carcinoma cell lines were obtained from and propagated as recommended by American Type Tissue Culture (ATCC), (Manassas, Va.). Mice were implanted subcutaneously with 2.5-10×10^6 cells in 0.1 ml sterile Hanks Balanced Salt Solution (HBSS) in the upper right flank area. […] Tumor weight (mg) was calculated from the equation length×(width)^2)/2; this formula can also be used to calculate tumor volume assuming unit density 1 mg=1 mm^3 Percent inhibition or tumor growth inhibition (TGI) was calculated using the following formula: 1-[mean tumor value of treated/mean tumor value of control]×100. […]

A375 = assay: Cell growth inhibition assay (MTS); type: cell-based; settings: Homo sapiens
Method: (§1) Compounds of the present invention have been tested for activity against a variety of cancer cell lines. The ability of compounds to inhibit cell growth in this assay is correlated with the reduction of dehydrogenase enzyme activity found in metabolically active cells.
(§2) Materials: A large variety of cancer cells from ATCC were maintained at 37° C., 5% CO2 in DMEM media supplemented with 10% fetal bovine serum, penicillin/streptomycin and fungizone (Invitrogen). NCM460 (Incell), a normal colon epithelial cell line, and human mammary epithelial cells (Cambrex) were maintained at 37° C., 5% CO2 in DMEM and HEBM media (Cambrex), respectively.
(§3) Methods: Test compounds were dissolved and diluted to 300× in DMSO then diluted 1:40 in DMEM. Cells were seeded into 96-well tissue culture plates at 1-5×10^3 per well and cultured at 37° C. for 24 h. Cells were incubated with test compounds for 72 hours followed by incubation with tetrazolium compound (3-(4,5-dimethylthiazol-2-yl)-5-(3-carboxymethoxyphenyl)-2-(4-sulfophenyl)-2H-tetrazolium, inner salt; MTS) and the electron coupling reagent, phenazine methosulfate (PMS) for 4 hr. […] The measurement of the absorbance of the formazan was assessed using an ENVISION™ (Perkin Elmer) microplate reader at 492 nm. The calculated IC50 value is the concentration of the test compound that causes a 50% decrease in the absorbance.

SK-MEL-2 = assay: Cell growth inhibition assay (MTS); type: cell-based; settings: Homo sapiens; SK-MEL-2, 72 hours
Method: as §1, §2, §3

WM-266-4 = assay: Cell growth inhibition assay (MTS); type: cell-based; settings: Homo sapiens
Method: as §1, §2, §3

786-O = assay: Cell growth inhibition assay (MTS); type: cell-based; settings: Homo sapiens, 786-0, kidney
Method: as §1, §2, §3

A427 = assay: Cell growth inhibition assay (MTS); type: cell-based; settings: Homo sapiens, A-427; A427, lung Carcinoma
Method: as §1, §2, §3

AN3CA = assay: Cell growth inhibition assay (MTS); type: cell-based; settings: Homo sapiens, AN3-CA, endometrial
Method: as §1, §2, §3

BDCM = assay: Cell growth inhibition assay (MTS); type: cell-based; settings: Homo sapiens, lymphoblast
Method: as §1, §2, §3

CAKI-1 = assay: Cell growth inhibition assay (MTS); type: cell-based; settings: Homo sapiens; CAKI-1, kidney
Method: as §1, §2, §3

CC5292 = assay: Cell growth inhibition assay (MTS); type: cell-based; settings: Homo sapiens; CC5292, MiT
Method: as §1, §2, §3

DU145 = assay: Cell growth inhibition assay (MTS); type: cell-based; settings: Homo sapiens, DU-145; DU145, prostate
Method: as §1, §2, §3

HCT-116 = assay: Cell growth inhibition assay (MTS); type: cell-based; settings: Homo sapiens; HCT-116, colon
Method: as §1, §2, §3

HCT-15 = assay: Cell growth inhibition assay (MTS); type: cell-based; settings: Homo sapiens; HCT-15, colon
Method: as §1, §2, §3

HEP-3B = assay: Cell growth inhibition assay (MTS); type: cell-based; settings: Homo sapiens, Hep3B, liver
Method: as §1, §2, §3

HPAF-II = assay: Cell growth inhibition assay (MTS); type: cell-based; settings: Homo sapiens, pancreas
Method: as §1, §2, §3

HT29 = assay: Cell growth inhibition assay (MTS); type: cell-based; settings: Homo sapiens, HT-29; HT29, colorectal carcinoma
Method: as §1, §2, §3

KG-1a = assay: Cell growth inhibition assay (MTS); type: cell-based; settings: Homo sapiens, AML
Method: as §1, §2, §3

LOVO = assay: Cell growth inhibition assay (MTS); type: cell-based; settings: Homo sapiens, colorectal carcinoma
Method: as §1, §2, §3

LS174T = assay: Cell growth inhibition assay (MTS); type: cell-based; settings: Homo sapiens, colorectal carcinoma
Method: as §1, §2, §3

NCI-H1993 = assay: Cell growth inhibition assay (MTS); type: cell-based; settings: Homo sapiens; NCI-H1993, lung adenocarcinoma
Method: as §1, §2, §3

NCI-H441 = assay: Cell growth inhibition assay (MTS); type: cell-based; settings: Homo sapiens; NCI-H441, lung papillary adenocarcinoma
Method: as §1, §2, §3

NCI-H460 = assay: Cell growth inhibition assay (MTS); type: cell-based; settings: Homo sapiens; NCI-H460, large cell lung carcinoma
Method: as §1, §2, §3

NCI-H520 = assay: Cell growth inhibition assay (MTS); type: cell-based; settings: Homo sapiens; NCI-H520, squamous cell lung carcinoma
Method: as §1, §2, §3

PANC-1 = assay: Cell growth inhibition assay (MTS); type: cell-based; settings: Homo sapiens; PANC-1, pancreas epithelioid carcinoma
Method: as §1, §2, §3

RT112 = assay: Cell growth inhibition assay (MTS); type: cell-based; settings: RT-112; RT112, human urinary bladder cell carcinoma
Method: as §1, §2, §3

SNU-16 = assay: Cell growth inhibition assay (MTS); type: cell-based; settings: Homo sapiens; SNU-16, gastric Carcinoma
Method: as §1, §2, §3

Cn1ccc(S(=O)(=O)N2CCC[C@@H](Nc3nccc(-c4c(-c5cccc(O)c5)nc5occn45)n3)C2)n1 [Compound 17, (R)-3-(5-(2-(1-(1-methyl-1H-pyrazol-3-ylsulfonyl)piperidin-3-ylamino)pyrimidin-4-yl)imidazo[2,1-b]oxazol-6-yl)phenol]
anti-tumor activity in a xenograft cancer model (human tumors (A375); IP at 160 mg/kg, FIG. 3, 160 mg/kg): retain their anti-tumor activity; also recorded: equally effective | GI50 (A375; A-375, 72 h, A375, 72 hours): < 0.0004 µM | GI50 (SK-MEL-2): 0.154 µM | GI50 (WM-266-4; WM-266-4, 72 hours): 0.0006 µM

Cn1ccc(S(=O)(=O)N2CCC[C@@H](Nc3nccc(-c4c(-c5cccc(OCOP(=O)(O)O)c5)nc5occn45)n3)C2)n1 [Compound 19, (R)-(3-(5-(2-(1-(1-methyl-1H-pyrazol-3-ylsulfonyl)piperidin-3-ylamino)pyrimidin-4-yl)imidazo[2,1-b]oxazol-6-yl)phenoxy)methyl dihydrogen phosphate]
anti-tumor activity in a xenograft cancer model (human tumors (A375); IP at 300 mg/kg, FIG. 3, 300 mg/kg): retain their anti-tumor activity; also recorded: equally effective | GI50 (786-O): 18.2 µM | GI50 (A375; A-375, A375, skin): 0.3 µM | GI50 (A375; A-375, A-375, melanoma): 0.28 µM | GI50 (A427): 3.23 µM | GI50 (AN3CA): 20.1 µM | GI50 (BDCM): 32.7 µM | GI50 (CAKI-1): 30.3 µM | GI50 (CC5292): 8.2 µM | GI50 (DU145): 9.62 µM | GI50 (HCT-116): 6.61 µM | GI50 (HCT-15): 23.2 µM | GI50 (HEP-3B): 3.16 µM | GI50 (HPAF-II): 5.78 µM | GI50 (HT29): 5.03 µM | GI50 (KG-1a): 11.5 µM | GI50 (LOVO): 2.17 µM | GI50 (LS174T): 5.9 µM | GI50 (NCI-H1993): 26.2 µM | GI50 (NCI-H441): 17.8 µM | GI50 (NCI-H460): 19.3 µM | GI50 (NCI-H520): 20.2 µM | GI50 (PANC-1): 29.7 µM | GI50 (RT112): 1.92 µM | GI50 (SNU-16): 15.7 µM | GI50 (WM-266-4; WM 266-4, WM-266.4, melanoma): 0.13 µM
